# Data from article PMC2364971, “A Spectroscopic Study on PtCl4^(2−) Binding to Rabbit Skeletal Muscle G-Actin” (Metal-Based Drugs, 1995).
# Biological target: T1, G-actin (rabbit skeletal muscle) (Oryctolagus cuniculus, UniProt P68135)
# T1 construct: gene ACTA1
# Assay: fluorescence of NPM reacted with free Cys374 after PtCl4^[…]- incubation; Scatchard approach, least-square fit
# Assay type: binding
smiles,measurement,value
[Cl][Pt-2]([Cl])([Cl])[Cl] [PtCl4^2−],Kd,100 nM
